For six molecules, mass density, refractive index and Normal melting temperature results are on record in the NIST ThermoML archive (doi:10.1021/je060138i).

± gives the expanded uncertainty stated by the source.

For series [1] the following is noted: for mass density: 293.15 K, 101.33 kPa, Liquid.
Series [2] in a line: refractive index (Na D-line) (dimensionless). Conditions: 293.15 K; 101.33 kPa; Liquid; Standard Abbe refractometry.

Regarding `ClCCl` [dichloromethane], in series [1], the mass density is reported as 1321 ± 1 kg/m3. The refractive index in series [2] amounted to 1.4237 ± 0.0007. Turning to `CC(=O)O` [acetic acid], the mass density in series [1] is 1050 ± 1 kg/m3. In series [2], the refractive index came out at 1.3718 ± 0.0008. Consider `CC#N` [acetonitrile], for which the mass density in series [1] is 783 ± 1 kg/m3. The refractive index in series [2] is reported as 1.343 ± 0.0007. In the case of `CC(C)=O` [acetone], the mass density in series [1] is recorded as 790 ± 1 kg/m3. In series [2], the refractive index worked out at 1.359 ± 0.0007. As to `CCOC(C)=O` [ethyl acetate], in series [1], the mass density is given as 899 ± 1 kg/m3. The refractive index in series [2] came to 1.3719 ± 0.0007.

In the case of `O=P1(O)OCC2(CO1)COP(=O)(O)OC2` (stereo unspecified), the Normal melting temperature in series [1] (Crystal, visual observation) turned out to be 310.50 ± 4.4 °C.

As a reminder, the mass density is the mass of a sample divided by its volume. For orientation: refractive index means the speed of light in vacuum divided by its phase velocity in the sample.
